This note sets out measurements from article PMC8016998, “Identification of potential therapeutic antimicrobial peptides against Acinetobacter baumannii in a mouse model of pneumonia” (Scientific Reports, 2021).

Data set [1] has as its system A. baumannii laboratory strains (ATCC strains 17,978 and 19,606). It counts as cell-based, Acinetobacter baumannii. Conditions: disc diffusion; activity = inhibition zone diameter ≥ 10 mm. (Agar diffusion results depend on both activity and mobility in agar.)
Description: The antimicrobial activities of 58 AMPs were screened against A. baumannii laboratory strains (ATCC strains 17,978 and 19,606) in vitro using a disc diffusion assay (Supplementary Table 1).
The antimicrobial activity against Acinetobacter baumannii were determined by a inhibition zone
assay, performed as previous described1. The AMPs with an inhibition zone diameter ≥ 10 mm were
determined as the AMPs with antimicrobial activity.
The next data set is described as follows: LD50 (preliminary data). It counts as in vivo. The following applies: intratracheal administration.
Data set [2] concerns Acinetobacter baumannii 17,978. It counts as cell-based. Conditions: 24 h at 37 °C, triplicate.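 Also: CLSI broth microdilution in 96-well polypropylene plates, MBC taken as lowest concentration giving no growth when clear wells were subcultured on LB agar for 24 h at 37 °C.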
Description: (§1) MBC were determined by extending the MIC procedure in sterilized 96-well polypropylene microtiter plates according to the broth microdilution guidelines of the Clinical and Laboratory Standards Institute with some modification[47]. […] In addition, 10 µL was drawn from each well with no visible turbidity onto LB agar plates and incubated for 24 h at 37 °C. The lowest concentration showing no visible growth on agar subculture was used as the MBC value. All experiments were performed in triplicate.
In data set [3] the test system is Acinetobacter baumannii 19,606. It counts as cell-based. The following applies: 24 h at 37 °C, triplicate.
Another data set relates to MDRAB clinical strains. It counts as cell-based, Acinetobacter baumannii. Conditions: range over MDRAB clinical strains (details in Supplementary Table 2), 24 h 37 °C.
Data set [4] deals with MDRAB clinical strain J49. It counts as cell-based, Acinetobacter baumannii. Conditions: strain J49, 24 h 37 °C.
A further data set has as its system MDRAB clinical strain K2. It counts as cell-based, Acinetobacter baumannii. The following applies: strain K2, 24 h 37 °C.
Data set [5] deals with MDRAB clinical strain Y92. It counts as cell-based, Acinetobacter baumannii. The following applies: strain Y92, 24 h 37 °C.
Description: as §1
In data set [6] the test system is MDRAB clinical strain W11. It counts as cell-based, Acinetobacter baumannii. Conditions: strain W11, 24 h 37 °C.
Data set [7] relates to MDRAB clinical strain U80. It counts as cell-based, Acinetobacter baumannii. Conditions: strain U80, 24 h 37 °C.
Data set [8] concerns MDRAB clinical strain U95. It counts as cell-based, Acinetobacter baumannii. The following applies: strain U95, 24 h 37 °C.
In data set [9] the test system is MDRAB clinical strain O59. It counts as cell-based, Acinetobacter baumannii. The following applies: strain O59, 24 h 37 °C.
In data set [10] the test system is MDRAB clinical strain D29. It counts as cell-based, Acinetobacter baumannii. Conditions: strain D29, 24 h 37 °C.
Description: as §1
Data set [11] relates to MDRAB clinical strain L87. It counts as cell-based, Acinetobacter baumannii. The following applies: strain L87, 24 h 37 °C.
Description: as §1
Data set [12] relates to MDRAB clinical strain AO80. It counts as cell-based, Acinetobacter baumannii. Conditions: strain AO80, 24 h 37 °C.
Data set [13] relates to MDRAB clinical strain AS40. It counts as cell-based, Acinetobacter baumannii. The following applies: strain AS40, 24 h 37 °C.
For data set [14], the system named is MDRAB clinical strain AK29. It counts as cell-based, Acinetobacter baumannii. Conditions: strain AK29, 24 h 37 °C.
Data set [15] concerns MDRAB clinical strain AK61. It counts as cell-based, Acinetobacter baumannii. Conditions: strain AK61, 24 h 37 °C.
Data set [16] relates to MDRAB clinical strain AE5. It counts as cell-based, Acinetobacter baumannii. The following applies: strain AE5, 24 h 37 °C.
In data set [17] the test system is MDRAB clinical strain AE6. It counts as cell-based, Acinetobacter baumannii. Conditions: strain AE6, 24 h 37 °C.
Data set [18] deals with MDRAB clinical strain AF11. It counts as cell-based, Acinetobacter baumannii. Conditions: strain AF11, 24 h 37 °C.
Description: as §1
Data set [19] deals with MDRAB clinical strain AF12. It counts as cell-based, Acinetobacter baumannii. Conditions: strain AF12, 24 h 37 °C.
Data set [20] has as its system MDRAB clinical strain AF93. It counts as cell-based, Acinetobacter baumannii. Conditions: strain AF93, 24 h 37 °C.
Description: as §1
Data set [21] deals with MDRAB clinical strain AG51. It counts as cell-based, Acinetobacter baumannii. The following applies: strain AG51, 24 h 37 °C.
Data set [22] has as its system MDRAB clinical strain AN10. It counts as cell-based, Acinetobacter baumannii. Conditions: strain AN10, 24 h 37 °C.
Description: as §1
The subject of data set [23] is MDRAB clinical strain AL87. It counts as cell-based, Acinetobacter baumannii. Conditions: strain AL87, 24 h 37 °C.
Description: as §1
Data set [24] relates to MDRAB clinical strain AZ93. It counts as cell-based, Acinetobacter baumannii. Conditions: strain AZ93, 24 h 37 °C.
Setting [25] is: 10 µL from wells without turbidity onto LB agar.

No end group written: not given here.

Description for MDRAB clinical strains: as §1

Take “AKKVFKRLG IGKFLHSAKKF-NH2 [HPMA, antimicrobial peptide]”: the “antimicrobial activity against Acinetobacter baumannii (inhibition zone assay)” value (shortened to “antimicrobial activity … (inhibition zone assay)”) in data set [1] is listed as “without antimicrobial activity (The antimicrobial peptides without antimicrobial activity)”.
As for “AKKVFKRLGIGAVLKVLTTG [HPME, antimicrobial peptide]”, the “antimicrobial activity … (inhibition zone assay)” value in data set [1] is on record as “without antimicrobial activity (The antimicrobial peptides without antimicrobial activity)”.
In general, LD50 refers to the dose expected to kill half of the subjects tested. Higher therefore signals a less toxic substance. FIHHIIGGLFSAGKAIHRLIRRRRR [TP4] had an LD50 in “LD50 (preliminary data)” of 10 to 20 mg/kg.
As to “GLLRKGGEKIGEKLKKIGQKIKNFFQKLVPQPEQ [CRAMP, antimicrobial peptide]”, the “antimicrobial activity … (inhibition zone assay)” value in data set [1] is “without antimicrobial activity (The antimicrobial peptides without antimicrobial activity)”.
Usually MBC stands for the lowest tested concentration that kills the bacteria rather than only halting them. A higher MBC goes with weaker bactericidal potency. As a reminder, the MIC is the lowest concentration found to suppress growth. A high value points to a need for much substance. For the substance ILGPVLSMVGSALGGLIKKI-NH2 [Maximin H2], the MBC was 128 µg/mL in data set [2] (setting [25]); 32 µg/mL in data set [3] (setting [25]); 16 to 128 µg/mL in the data set with MDRAB clinical strains (subculture on LB agar); 16 µg/mL in data set [4] (subculture on LB agar); 32 µg/mL with MDRAB clinical strain K2 (subculture on LB agar); 128 µg/mL in data set [5] (subculture on LB agar). Also, the MBC in data set [6] (subculture on LB agar), in data set [7] (subculture on LB agar), in data set [8] (subculture on LB agar), in data set [9] (subculture on LB agar), in [10] (subculture on LB agar) and in data set [11] (subculture on LB agar) was 128 µg/mL throughout. The MBC in data set [12] (subculture on LB agar) worked out at 128 µg/mL; in data set [13] (subculture on LB agar), 64 µg/mL; in data set [14] (subculture on LB agar) it was 32 µg/mL; in data set [15] (subculture on LB agar) it was 64 µg/mL; in [16] (subculture on LB agar) it was 128 µg/mL; in data set [17] (subculture on LB agar), 128 µg/mL. In addition, the MBC came to 128 µg/mL in data set [18] (subculture on LB agar); 64 µg/mL in data set [19] (subculture on LB agar); 64 µg/mL in data set [20] (subculture on LB agar); 64 µg/mL in data set [21] (subculture on LB agar); 64 µg/mL in [22] (subculture on LB agar); 64 µg/mL in data set [23] (subculture on LB agar). Moreover, in data set [24] (subculture on LB agar), the MBC was found to be 64 µg/mL. Further, the minimum inhibitory concentration (MIC) is 64 µg/mL in data set [2] (broth microdilution (CLSI, modified), LB medium, 5 × 10^5 CFU/mL, lowest concentration with no visible growth); 32 µg/mL in data set [3] (broth microdilution (CLSI, modified), LB medium, 5 × 10^5 CFU/mL); 16 to 128 µg/mL against MDRAB clinical strains (broth microdilution, LB); 16 µg/mL in data set [4] (broth microdilution, LB); 16 µg/mL in the data set with MDRAB clinical strain K2 (broth microdilution, LB); 64 µg/mL in data set [5] (broth microdilution, LB). The minimum inhibitory concentration (MIC) in [6] (broth microdilution, LB) was 64 µg/mL; in data set [7] (broth microdilution, LB), 128 µg/mL; in data set [8] (broth microdilution, LB), 128 µg/mL; in data set [9] (broth microdilution, LB), 128 µg/mL; in [10] (broth microdilution, LB), 128 µg/mL; in data set [11] (broth microdilution, LB), 128 µg/mL. Moreover, the minimum inhibitory concentration (MIC) is 64 µg/mL in data set [12] (broth microdilution, LB); 64 µg/mL in [13] (broth microdilution, LB); 32 µg/mL in [14] (broth microdilution, LB); 64 µg/mL in data set [15] (broth microdilution, LB); 64 µg/mL in data set [16] (broth microdilution, LB); 128 µg/mL in [17] (broth microdilution, LB). Further, the MIC in [18] (broth microdilution, LB) amounted to 128 µg/mL; in data set [19] (broth microdilution, LB) it was 64 µg/mL; in data set [20] (broth microdilution, LB) it was 64 µg/mL; in data set [21] (broth microdilution, LB), 32 µg/mL; in data set [22] (broth microdilution, LB), 64 µg/mL; in data set [23] (broth microdilution, LB) it was 64 µg/mL. Moreover, the minimal inhibitory concentration (MIC) in data set [24] (broth microdilution, LB) is 64 µg/mL.
Consider “KQFRIRVRV [Peptide 1029, antimicrobial peptide]”, for which the “antimicrobial activity … (inhibition zone assay)” value in [1] is reported as “without antimicrobial activity (The antimicrobial peptides without antimicrobial activity)”.
Same read-out and setting: to “KRFRIRVRV [Peptide 1037, antimicrobial peptide]” belongs “without antimicrobial activity (The antimicrobial peptides without antimicrobial activity)”.
